In patent US20110269811A1, “INHIBITORS OF SEMICARBAZIDE-SENSITIVE AMINE OXIDASE (SSAO) AND VAP-1 MEDIATED ADHESION USEFUL FOR TREATMENT AND PREVENTION OF DISEASES” (priority 2006, published 2011):
Structures can show the parent of a compound that is named as a salt.

Test system: not given
Experiment: not given
Conditions: not given

Row | SMILES | melting point [°C]
1 | CCOc1ccc(C/C(=C/F)CN)cc1.Cl [Compound I-2-Z, (Z)-3-Fluoro-2-(4-ethoxybenzyl)-allylamine hydrochloride] | 153 to 154
2 | CC(C)(C)c1ccc(C/C(=C/F)CN)cc1.Cl [Compound I-15-Z, (Z)-3-Fluoro-2-(4-tert-butylbenzyl)allylamine hydrochloride] | 155 to 156

Now from value to molecule:

Row | melting point [°C] | SMILES
3 | 175 to 176 | COc1cccc(C/C=C(/F)CN)c1.Cl [II-8-E, (E)-2-Fluoro-4-(3-methoxyphenyl)-2-butenylamine hydrochloride]
4 | 119 to 120.5 | COc1cccc(C/C(=C/F)CN)c1.Cl [Compound I-5-Z, (Z)-3-Fluoro-2-(3-methoxybenzyl)allylamine hydrochloride]

Biological target: T1, Recombinant human MAO-A (Homo sapiens, UniProt P21397)
T1 construct: purchased BD Biosciences (MA, USA)
T1 sequence (P21397 1-527): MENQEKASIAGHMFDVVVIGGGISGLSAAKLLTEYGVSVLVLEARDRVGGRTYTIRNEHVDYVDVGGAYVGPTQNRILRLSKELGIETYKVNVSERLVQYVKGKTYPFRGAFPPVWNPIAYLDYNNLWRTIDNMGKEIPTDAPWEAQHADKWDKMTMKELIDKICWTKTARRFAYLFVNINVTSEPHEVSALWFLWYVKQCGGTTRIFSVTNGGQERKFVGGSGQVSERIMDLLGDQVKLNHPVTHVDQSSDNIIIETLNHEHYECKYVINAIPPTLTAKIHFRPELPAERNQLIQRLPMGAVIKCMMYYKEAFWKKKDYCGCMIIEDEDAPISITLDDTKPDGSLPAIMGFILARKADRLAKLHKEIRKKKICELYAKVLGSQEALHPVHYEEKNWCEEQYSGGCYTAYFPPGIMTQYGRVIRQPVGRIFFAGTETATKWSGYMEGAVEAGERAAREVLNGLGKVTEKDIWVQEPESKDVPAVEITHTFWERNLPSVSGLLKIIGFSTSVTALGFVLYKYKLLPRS
Experiment: MAO-A activity, colorimetric method, tyramine substrate
Assay type: biochemical
Conditions: ratio of IC50 for MAO-A to IC50 for SSAO
Method: The specificities of the different SSAO inhibitors was tested by determining their abilities to inhibit MAO-A and MAO-B activities in vitro. Recombinant human MAO-A and human MAO-B enzymes were obtained from BD Biosciences (MA, USA). MAO activity was measured using the colorimetric method essentially as described (Holt, A. et al. (1997) Anal. Biochem. 244: 384). A pre-determined amount of inhibitor diluted in 0.2M potassium phosphate buffer, pH 7.6, was added to each well, if required. The amount of inhibitor varied in each assay but was generally at a final concentration of between 1 nM and 1 mM. Controls lacked inhibitor. The following agents were then added to a final reaction volume of 200 μL in 0.2M potassium phosphate buffer, pH 7.6: 0.04 mg/ml of MAO-A or 0.07 mg/ml MAO-B enzyme, 15 μL of 10 mM tyramine substrate (for MAO-A), or 15 μL 100 mM benzylamine substrate (for MAO-B), and 50 μL of freshly made chromogenic solution. The chromogenic solution contained 750 μM vanillic acid (Sigma#V-2250), 400 μM 4-aminoantipyrine (Sigma #A-4328) and 12 U/mL horseradish peroxidase (Sigma #P-8250) in order to cause a change of 0.5 OD A490 nm/h. This was within the linear response range for the assay. The plates were incubated for 60 min at 37° C. The increase in absorbance, reflecting MAO activity, was measured at 490 nm using microplate spectrophotometer (Power Wave 40, Bio-Tek Inst.). Inhibition was presented as percent inhibition compared to control after correcting for background absorbance and IC50 values calculated using GraphPad Prism software. Clorgyline and pargyline (inhibitors of MAO-A and -B, respectively) at 1 μM, were added to some wells as positive controls for MAO inhibition. […] The compounds described in the present invention are therefore expected to have therapeutic utility in the treatment of diseases and conditions in which the activity of SSAO/VAP-1 plays a role, that is, in SSAO/VAP-1 mediated diseases and conditions.

Row | SMILES | Specificity of SSAO on MAO-A
5 | NC/C(=C\F)CCc1ccc(F)cc1 [Compound I-99-Z, (Z)-2-(fluoromethylene)-4-(4-fluorophenyl)butan-1-amine] | 177
6 | NC/C(F)=C\Cc1cc(F)cc(C(F)(F)F)c1 [II-1-E, (E)-2-Fluoro-4-(3-fluoro-5-trifluoromethylphenyl)-but-2-enylamine] | >2400
7 | CCOc1ccc(C/C(=C/F)CN)cc1.Cl [Compound I-2-Z, (Z)-3-Fluoro-2-(4-ethoxybenzyl)-allylamine hydrochloride] | 7900
8 | CC(C)(C)c1ccc(C/C(=C/F)CN)cc1.Cl [Compound I-15-Z, (Z)-3-Fluoro-2-(4-tert-butylbenzyl)allylamine hydrochloride] | 17000
9 | CC(C)Oc1ccc(C/C(=C\F)CN)cc1 [Compound I-8-E, (E)-3-Fluoro-2-(4-isopropoxybenzyl)allylamine hydrochloride] | 4211
10 | COc1ccc(C/C(=C/F)CN)cc1.Cl [Compound I-1-Z, (Z)-3-Fluoro-2-(4-methoxybenzyl)-allylamine hydrochloride] | 4700

Second part, the molecule after the results:

Row | Specificity of SSAO on MAO-A | SMILES
11 | >3448 | COc1cccc(C/C(C)=C(/F)CN)c1 [II-18-E, hydrochloride]
12 | 50000 | COc1cccc(C/C=C(/F)CN)c1.Cl [II-8-E, (E)-2-Fluoro-4-(3-methoxyphenyl)-2-butenylamine hydrochloride]
13 | 2643 | COc1cccc(C/C(=C/F)CN)c1.Cl [Compound I-5-Z, (Z)-3-Fluoro-2-(3-methoxybenzyl)allylamine hydrochloride]
14 | 2600 | CN(C)c1cccc(C/C=C(/F)CN)c1.Cl [II-11-E, (E)-2-Fluoro-4-(3-dimethylaminophenyl)-2-butenylamine hydrochloride]
15 | >6250 | COc1cccc(OC/C=C(/F)CN)c1 [II-19-E, (E)-2-fluoro-4-(3-methoxyphenoxy)but-2-en-1-amine]

Same assay, conditions: recombinant human MAO-A

Row | SMILES | IC50 [µM]
16 | NC/C(=C\F)CCc1ccc(F)cc1 [Compound I-99-Z, (Z)-2-(fluoromethylene)-4-(4-fluorophenyl)butan-1-amine] | 23
17 | NC/C(F)=C\Cc1cc(F)cc(C(F)(F)F)c1 [II-1-E, (E)-2-Fluoro-4-(3-fluoro-5-trifluoromethylphenyl)-but-2-enylamine] | > 87
18 | CCOc1ccc(C/C(=C/F)CN)cc1.Cl [Compound I-2-Z, (Z)-3-Fluoro-2-(4-ethoxybenzyl)-allylamine hydrochloride] | 79
19 | CC(C)(C)c1ccc(C/C(=C/F)CN)cc1.Cl [Compound I-15-Z, (Z)-3-Fluoro-2-(4-tert-butylbenzyl)allylamine hydrochloride] | 119
20 | CC(C)Oc1ccc(C/C(=C\F)CN)cc1 [Compound I-8-E, (E)-3-Fluoro-2-(4-isopropoxybenzyl)allylamine hydrochloride] | 48
21 | COc1ccc(C/C(=C/F)CN)cc1.Cl [Compound I-1-Z, (Z)-3-Fluoro-2-(4-methoxybenzyl)-allylamine hydrochloride] | 85

Next, values leading:

Row | IC50 [µM] | SMILES
22 | > 1000 | COc1cccc(C/C(C)=C(/F)CN)c1 [II-18-E, hydrochloride]
23 | 1100 | COc1cccc(C/C=C(/F)CN)c1.Cl [II-8-E, (E)-2-Fluoro-4-(3-methoxyphenyl)-2-butenylamine hydrochloride]
24 | 74 | COc1cccc(C/C(=C/F)CN)c1.Cl [Compound I-5-Z, (Z)-3-Fluoro-2-(3-methoxybenzyl)allylamine hydrochloride]
25 | 286 | CN(C)c1cccc(C/C=C(/F)CN)c1.Cl [II-11-E, (E)-2-Fluoro-4-(3-dimethylaminophenyl)-2-butenylamine hydrochloride]
26 | > 1000 | COc1cccc(OC/C=C(/F)CN)c1 [II-19-E, (E)-2-fluoro-4-(3-methoxyphenoxy)but-2-en-1-amine]

Biological target: T2, Human SSAO (Homo sapiens, UniProt Q16853)
T2 construct: rat lung or human umbilical cord homogenates were prepared by chopping the freshly removed tissue; from tissue; host or cells: human umbilical cord homogenate (25,000 g supernatant)
T2 sequence (Q16853 1-763): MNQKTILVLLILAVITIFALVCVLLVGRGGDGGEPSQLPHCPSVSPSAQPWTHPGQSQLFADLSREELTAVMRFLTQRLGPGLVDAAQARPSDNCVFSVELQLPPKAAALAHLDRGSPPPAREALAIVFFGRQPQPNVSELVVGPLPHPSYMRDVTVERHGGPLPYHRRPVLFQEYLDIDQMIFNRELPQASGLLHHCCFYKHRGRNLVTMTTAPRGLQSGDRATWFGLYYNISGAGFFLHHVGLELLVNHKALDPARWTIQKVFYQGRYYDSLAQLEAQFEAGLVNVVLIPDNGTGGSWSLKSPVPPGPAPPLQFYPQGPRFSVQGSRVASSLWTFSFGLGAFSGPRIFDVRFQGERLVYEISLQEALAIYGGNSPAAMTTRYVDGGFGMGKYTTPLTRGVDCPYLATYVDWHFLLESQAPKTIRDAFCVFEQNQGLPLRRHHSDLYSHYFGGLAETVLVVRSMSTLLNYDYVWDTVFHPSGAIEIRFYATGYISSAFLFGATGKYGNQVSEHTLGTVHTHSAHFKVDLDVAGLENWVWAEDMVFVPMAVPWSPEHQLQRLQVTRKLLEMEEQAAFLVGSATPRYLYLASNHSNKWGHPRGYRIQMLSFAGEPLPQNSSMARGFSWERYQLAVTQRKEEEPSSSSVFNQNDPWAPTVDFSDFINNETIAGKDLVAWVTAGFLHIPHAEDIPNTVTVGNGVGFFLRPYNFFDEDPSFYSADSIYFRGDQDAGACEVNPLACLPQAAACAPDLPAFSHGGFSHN
Experiment: In vitro inhibition of SSAO activity, human umbilical cord homogenate, 14C-benzylamine
Assay type: biochemical
Conditions: as restated in Example 46; read-out: IC50 for human SSAO
Method: SSAO activity was measured as described (Lizcano J M. Et al. (1998) Biochem J. 331:69). Briefly, rat lung or human umbilical cord homogenates were prepared by chopping the freshly removed tissue into small pieces and washing them thoroughly in PBS. The tissue was then homogenized 1:10 (w/v) for lung or 1:5 (w/v) for umbilical cord, in 10 mM potassium phosphate buffer (pH 7.8). Homogenates were then centrifuged at 1000 g at 4° C. for 10 min (lung) or 25,000 g for 30 min (umbilical cord); the supernatants were kept frozen until ready to use. Lung or umbilical cord homogenate was preincubated with clorgyline and pargyline at 1 μM to inhibit MAO-A and -B activity, respectively, and SSAO inhibitors were generally present at 1 nM-10 μM. The reaction was initiated by addition of 20 μM ^14C— benzylamine as substrate. The reaction was carried out at 37° C. in a final volume of 400 μL of 100 mM potassium phosphate buffer (pH 7.2) and stopped with 100 μl of 2M citric acid. Radioactively labeled products were extracted into toluene/ethyl acetate (1:1, v/v) containing 0.6% (w/v) 2,5-diphenyloxazole (PPO) before liquid scintillation counting.

Row | SMILES | IC50 [µM]
27 | COc1ccc(C/C(=C/F)CN)cc1.Cl [Compound I-1-Z, (Z)-3-Fluoro-2-(4-methoxybenzyl)-allylamine hydrochloride] | 0.018

Same assay, conditions: human umbilical cord homogenate; read-out: Human SSAO IC50

Row | SMILES | IC50 [µM]
28 | NC/C(=C\F)CCc1ccc(F)cc1 [Compound I-99-Z, (Z)-2-(fluoromethylene)-4-(4-fluorophenyl)butan-1-amine] | 0.13
29 | NC/C(F)=C\Cc1cc(F)cc(C(F)(F)F)c1 [II-1-E, (E)-2-Fluoro-4-(3-fluoro-5-trifluoromethylphenyl)-but-2-enylamine] | 0.036
30 | CCOc1ccc(C/C(=C/F)CN)cc1.Cl [Compound I-2-Z, (Z)-3-Fluoro-2-(4-ethoxybenzyl)-allylamine hydrochloride] | 0.01
31 | CC(C)(C)c1ccc(C/C(=C/F)CN)cc1.Cl [Compound I-15-Z, (Z)-3-Fluoro-2-(4-tert-butylbenzyl)allylamine hydrochloride] | 0.007
32 | CC(C)Oc1ccc(C/C(=C\F)CN)cc1 [Compound I-8-E, (E)-3-Fluoro-2-(4-isopropoxybenzyl)allylamine hydrochloride] | 0.0114

Now from value to molecule:

Row | IC50 [µM] | SMILES
33 | 0.29 | COc1cccc(C/C(C)=C(/F)CN)c1 [II-18-E, hydrochloride]
34 | 0.022 | COc1cccc(C/C=C(/F)CN)c1.Cl [II-8-E, (E)-2-Fluoro-4-(3-methoxyphenyl)-2-butenylamine hydrochloride]
35 | 0.028 | COc1cccc(C/C(=C/F)CN)c1.Cl [Compound I-5-Z, (Z)-3-Fluoro-2-(3-methoxybenzyl)allylamine hydrochloride]
36 | 0.11 | CN(C)c1cccc(C/C=C(/F)CN)c1.Cl [II-11-E, (E)-2-Fluoro-4-(3-dimethylaminophenyl)-2-butenylamine hydrochloride]
37 | 0.16 | COc1cccc(OC/C=C(/F)CN)c1 [II-19-E, (E)-2-fluoro-4-(3-methoxyphenoxy)but-2-en-1-amine]
